From patent US7208154B2, “Methods and compositions for the treatment of MHC-associated conditions” (Regents of the University of Michigan, priority 2002, dated 2007)

Legend:
calreticulin [1] = molecular target: T1, calreticulin (Homo sapiens, UniProt P27797); experiment: Blocking of shared epitope peptide-triggered signaling (cAMP-inhibitory effect, genoprotection) in M1 cells; type: cell-based; set-up: endogenous in cells; host or cells: M1 human fibroblastoid cells; settings: M1 cells pre-incubated or transfected
T1 sequence (P27797 18-417): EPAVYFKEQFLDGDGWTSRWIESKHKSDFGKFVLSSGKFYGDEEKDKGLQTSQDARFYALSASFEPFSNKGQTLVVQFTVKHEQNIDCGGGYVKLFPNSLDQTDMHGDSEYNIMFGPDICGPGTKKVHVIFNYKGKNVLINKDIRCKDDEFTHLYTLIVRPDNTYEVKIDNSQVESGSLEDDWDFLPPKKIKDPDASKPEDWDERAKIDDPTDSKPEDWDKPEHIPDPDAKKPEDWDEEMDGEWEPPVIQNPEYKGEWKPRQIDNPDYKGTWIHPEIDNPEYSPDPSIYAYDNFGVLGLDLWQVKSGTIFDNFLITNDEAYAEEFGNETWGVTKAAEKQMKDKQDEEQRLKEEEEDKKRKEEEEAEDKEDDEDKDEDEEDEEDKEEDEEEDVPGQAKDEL
Protocol: Finally, in order to determine whether these neuroprotective peptides transduce their signaling through calreticulin, two complementing protocols were executed: i) Inhibition of peptide-calreticulin interaction using anti-calreticulin antibodies, or ii) blocking calreticulin expression with antisense oligonucleotides (as shown in FIG. 13C and FIG. 13D).
M1 cells were cultured in 6-well plate to 60–70% confluency. M1 cells were treated by 0.2 μM antisense oligonucleotide for 24 to 48 hr, using Lipofectin as a carrier. Calreticulin expression levels were determined by Western-blot and flow cytometry, using anti-calreticulin antibodies. Polyclonal rabbit anti-human calreticulin antibodies were obtained from ABR, Golden, CO.

calreticulin [2] = molecular target: T1, calreticulin; experiment: Surface plasmon resonance, calreticulin immobilized on CM5 chip, pentapeptide binding; set-up: GST (cleaved yes); made in house; host or cells: E. coli (strain provided by Dr. Michalak); settings: Biacore, 25° C., peptides 25–180 μM
Protocol: The E. coli strain expressing GST fusion Calreticulin was kindly provided by Dr. Michalak [Baksh S et al. Protein Expr Purif., 3, 322–331, (1992)]. GST-Calreticulin was purified according to the manual of GST Gene Fusion System from Pharmacia. Factor Xa was used to liberate GST from calreticulin. In an additional step the column was treated with mono-Q to achieve >90% purity of calreticulin (MW=60 kD).
Prior to use, biosensor chips CM5 were docked into a Biacore® 2000 and preconditioned in water at 100 μl/min by applying two consecutive 20-μl pulses of 50 mM NaOH, then 10 mM HCl, and finally 0.1% SDS. Calreticulin was immobilized on CM5 surface by standard primary amine coupling [Lofas S et al. Biosensors & Bioelectronics, 10: 813–822, (1995), Johnsson B et al. J Mol Recognit., 8: 125–131, (1995), Karlsson R et al. J. Immunol. Methods, 200:121–133. (1997)]. Immobilizations were conducted at 25° C. in HBS-EP (10 mM HEPES, pH7.4, 150 mM NaCl, 1 mM EDTA, 0.005% Surfactant P-20), with a flow of 10 μl/min. […]
Shared epitope-expressing peptides potently bind to, and trigger, signaling through calreticulin. […] However, when calreticulin binding activities of the panel of pentapeptides were determined, one conspicuous exception was discovered, that is DKCLA FIG. 15 peptide #7 (Q70D).

calreticulin [3] = molecular target: T1, calreticulin; experiment: Competitive inhibition of shared epitope peptide binding to calreticulin (Biacore); set-up: GST (cleaved yes); made in house; host or cells: E. coli (strain provided by Dr. Michalak)
Protocol: Prior to use, biosensor chips CM5 were docked into a Biacore® 2000 and preconditioned in water at 100 μl/min by applying two consecutive 20-μl pulses of 50 mM NaOH, then 10 mM HCl, and finally 0.1% SDS. Calreticulin was immobilized on CM5 surface by standard primary amine coupling [Lofas S et al. Biosensors & Bioelectronics, 10: 813–822, (1995), Johnsson B et al. J Mol Recognit., 8: 125–131, (1995), Karlsson R et al. J. Immunol. Methods, 200:121–133. (1997)]. Immobilizations were conducted at 25° C. in HBS-EP (10 mM HEPES, pH7.4, 150 mM NaCl, 1 mM EDTA, 0.005% Surfactant P-20), with a flow of 10 μl/min. The CM5 surface was activated by 7 min injection of 200 mM EDC/50 mM NHS to prepare a high-capacity surface, with manual injection of 100 μg/ml calreticulin until 5500 RU level was approached. Then 100 μl of 1M ethanolamine was used to block remaining activated group.
Calreticulin and peptide binding were performed at 25° C. in binding buffer (10 mM HEPES, pH8.0, 50 mM KCl, 0.5 mM CaCl2, 1% Triton-X100), with a flow rate of 10 μl/min. Peptides in the analyte ranged in concentration from 25–180 μM. Binding assays were repeated at least 3 times. Kinetic analysis was performed using Kinetic separate ka/kd fitting in BIA evaluation 3.0 software.
In order to determine whether DKCLA [SEQ ID NO: 16] and shared epitope-expressing peptides compete for the same binding site on calreticulin, competitive binding studies were performed in which the calreticulin binding activity of 14-mer shared epitope-expressing peptides was determined in the presence or absence of different pentapeptides. […] Thus, a Q70D substitution produces a shared epitope-antagonistic effect.

Row | Block of shared epitope peptide-triggered signaling / inhibitory effect on genoprotection (calreticulin [1]) | Binding to immobilized calreticulin (calreticulin [2]) | IC50, inhibition of 65–78*0401 binding to calreticulin (calreticulin [3]; dose response analysis, FIG. 16C) | IC50, inhibition of 65–78*0404 binding to calreticulin (calreticulin [3]; dose response analysis, FIG. 16D) | Substance | Block of 65–78*0401 binding to calreticulin (calreticulin [3]; 14-mer peptide 65–78*0401) | Block of 65–78*0404 binding to calreticulin (calreticulin [3]; 14-mer peptide 65–78*0404) | Inhibition of 65–79*0401 binding to calreticulin (calreticulin [3]; Biacore assay, control experiment under identical conditions)
1 | prevented | bind very strongly to calreticulin | low-υM range | low-υM range | DKCLA [Asp Lys Cys Leu Ala] | effectively and specifically blocked binding | effectively and specifically blocked binding | 
2 |  | did not bind to calreticulin |  |  | Gln Lys Arg Ala Glu (QKRAE) [pentapeptide with A74E substitution] |  |  | did not inhibit 65–79*0401 binding to calreticulin
